The source of these data is PubChem BioAssay (NCI).

Holding throughout (experiment): NCI-60 cell line screen, 48 h
Experiment [1] concerns SR leukemia.
For experiment [2], the system named is OVCAR-8 ovarian.
For experiment [3], the system named is SF-268 CNS.
The test system of experiment [4] is SW-620 colon.
Experiment [5] has as its system SN12C renal.
In experiment [6] the test system is UACC-257 melanoma.
Experiment [7] deals with K-562 leukemia.
Experiment [8] relates to UACC-62 melanoma.
The test system of experiment [9] is UO-31 renal.
Experiment [10] concerns HCC-2998 colon.

Molecules are shown by their SMILES. Where “and” joins values, the source holds several entries; their conditions need not be identical. Equal values may be shown once.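 Compound exposure: 48 hours, 5 concentrations, 96-well plates. GI50 marks 50% less growth. At the TGI there is no net growth.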

With `CCOC(=O)/C=C(/C(=O)OCC)n1cc(Cl)c(=O)n(CC(=O)OCC)c1=O`, the TGI in experiment [1] was 25 µM; in experiment [2], 8.43 µM and 28.4 µM; in experiment [3], 12.2 µM and 41.4 µM; in [4], 4.45 µM and 12.9 µM; in experiment [5], 10.9 µM and 32.7 µM; in experiment [6], 25 µM and 57.9 µM. The TGI was 25 µM and > 100 µM in experiment [7]; 8.88 µM and 33.6 µM in experiment [8]. Moreover, the GI50 is 12.6 µM in experiment [2]; 24 µM in experiment [3]; 3.04 µM in experiment [4]; 20.7 µM in [6]; 4.24 µM in experiment [7]; 18.6 µM in [8].

Take `CC1OC(O[C@H]2C[C@@H](O)[C@]3(CO)[C@H]4[C@H](O)C[C@]5(C)[C@@H](C6=CC(=O)OC6)CC[C@]5(O)[C@@H]4CC[C@]3(O)C2)C(O)C(O)C1O` (stereo partly specified): the GI50 in experiment [1] is 10.2 µM; in experiment [2], 19.2 µM; in experiment [9], 24.7 µM; in experiment [3] it was 18.9 µM; in experiment [4], 22.5 µM; in experiment [5], 20.6 µM. Besides, the figures for the GI50 in [6], in experiment [8] and in [10] were 19.5 µM, 17.6 µM and 20.2 µM, respectively. The TGI in experiment [1] is 38 µM; in experiment [2] it was 34.8 µM; in experiment [9], 57.1 µM; in experiment [3], 33.5 µM; in [4], 48.7 µM; in experiment [5], 40.6 µM. Moreover, the TGI is 39.2 µM in experiment [6], 32.4 µM in experiment [8] and 36.6 µM in experiment [10].

On to `CC(=O)Nc1ccccc1Sc1ccccc1`, for which the TGI in experiment [2], in experiment [9], in experiment [3], in experiment [4], in [5] and in experiment [6] was more than 100 µM each time. The TGI in experiment [7], in experiment [8] and in [10] was more than 100 µM throughout.

On to `OCCC1(O)CCC(O)CC1` (stereo unspecified), for which the TGI in experiment [1], in [2], in [9], in [3], in [4] and in experiment [6] was more than 100 µM each time. Further, the TGI in experiment [7], in [8] and in experiment [10] was more than 100 µM each time.

As for `Cn1c(N2NC(=O)C(N=Nc3ccc(S(N)(=O)=O)cc3)C2=O)nc(-c2ccco2)c(C#N)c1=O` (stereo unspecified), the GI50 is 2.89 µM in [1]; more than 50 µM in [2]; more than 50 µM in [9]; 15.6 µM in experiment [3]; 9.23 µM in experiment [4]; more than 50 µM in experiment [5]. The GI50 in experiment [6] is more than 50 µM; in experiment [7], 5.69 µM; in experiment [8], 39.4 µM. Moreover, the TGI in experiment [1] is 28.4 µM; in experiment [2], more than 50 µM; in experiment [9] it was more than 50 µM; in [3], more than 50 µM; in experiment [4], 28.6 µM; in [5] it was more than 50 µM. The TGI in experiment [6] is more than 50 µM; in experiment [7], 31.2 µM; in experiment [8], more than 50 µM.

For the compound `CC1(Cl)C(=O)NC(=O)N(C2CC(N=[N+]=[N-])C(CO)O2)C1N=[N+]=[N-]` (stereo unspecified), the TGI in experiment [2], in experiment [9], in experiment [3], in [4], in experiment [5] and in [6] was more than 100 µM throughout. For the same compound, the TGI in experiment [7], in [8] and in experiment [10] was more than 100 µM each time.

As to `Cc1ccc(-c2c3c([nH]c(=O)c2C#N)-c2cc(F)ccc2OC3)cc1`, the GI50 in experiment [1] was more than 100 µM; in experiment [2], more than 100 µM; in [9] it was 41.3 µM; in [4] it was more than 100 µM; in experiment [5] it was more than 100 µM; in [6], more than 100 µM. The values for the GI50 in experiment [7] and in experiment [8] were 86.4 µM and 61.2 µM, respectively. Besides, the TGI in experiment [1], in experiment [2], in experiment [9], in experiment [4], in experiment [5] and in experiment [6] was more than 100 µM each time. Also, the TGI in experiment [7] and in experiment [8] was more than 100 µM throughout.

With `O=C1OCc2c1cc1ccc(O)c(OC3OC(CO)C(O)C(O)C3O)c1c2-c1ccc2c(c1)OCO2` (stereo unspecified), the TGI in [2], in experiment [9], in experiment [3], in [4], in experiment [5] and in experiment [6] was more than 100 µM in each case. In addition, the TGI in [7], in [8] and in experiment [10] was more than 100 µM in each case. For the same compound, the GI50 in experiment [9] is 27.2 µM; in experiment [3] it was 57.1 µM; in experiment [6], 37.9 µM; in [7], 39.5 µM; in [10] it was 38.2 µM.

Consider `CSc1cc(N=Nc2nc3ccccc3s2)c2ccccc2c1O`, for which the GI50 was 0.973 µM in experiment [1]; 13.6 µM in [2]; 7.61 µM in experiment [9]; 7.87 µM in experiment [3]; 13.3 µM in [4]; 6.1 µM in experiment [5]. Further, the GI50 in experiment [6] is 11.6 µM; in experiment [7] it was 3.6 µM; in experiment [8], 5.41 µM. Besides, the TGI in experiment [1] was found to be 19.4 µM; in experiment [2], 39 µM; in [9], 15.9 µM; in experiment [3] it was 17.4 µM; in [4], 34.8 µM; in experiment [5] it was 12.9 µM. Moreover, the TGI was 21.7 µM in experiment [6], 15.2 µM in experiment [7] and 11.9 µM in experiment [8].

For the compound `COc1ccccc1C1C(C(=O)Nc2ccccc2)=C(C)NC(C)=C1C(=O)Nc1ccccc1`, the TGI in [2], in [9], in [3], in experiment [4], in experiment [5] and in experiment [6] was more than 100 µM each time. Further, the TGI in experiment [7], in experiment [8] and in [10] was more than 100 µM in each case.

As to `O=C1NNC=Nc2ccc(cc2)S(=O)(=O)c2ccc(cc2)N=CNNC1=O`, the TGI in experiment [2], in [9], in experiment [3], in experiment [4], in [5] and in [6] was more than 100 µM each time. Also, the TGI in [7], in experiment [8] and in [10] was more than 100 µM throughout.

Take `O=C1CNCCCN2CCN(CCCNCC(=O)Nc3ccc(cc3)S(=O)(=O)c3ccc(cc3)NC(=O)CNCCCN3CCN(CCCNCC(=O)Nc4ccc(cc4)S(=O)(=O)c4ccc(cc4)N1)CC3)CC2`: the TGI is more than 56.9 µM in experiment [2]; more than 100 µM in [9]; more than 55.4 µM in experiment [3]; more than 100 µM in [4]; more than 80.9 µM in experiment [5]; 32.7 µM in experiment [6]. The results for the TGI in experiment [7], in [8] and in experiment [10] were more than 58.5 µM, more than 67.5 µM and 42.7 µM, respectively.

With `CCN(CC)c1c(C(=O)/C=C/c2ccccc2)c(-c2ccccc2)nn(C)c1=O`, the TGI in [1], in experiment [2], in experiment [9], in experiment [3], in [5] and in [6] was more than 100 µM in each case. The TGI in [7] and in experiment [8] was more than 100 µM throughout.

Take `COC(=O)C1=C(C(=O)OC)C2C=CC1C1C(Cl)=C(Cl)C21` (stereo unspecified): the TGI in experiment [2], in [9], in experiment [3], in experiment [4], in experiment [5] and in [6] was more than 100 µM in each case. Further, the TGI in experiment [7], in [8] and in experiment [10] was more than 100 µM throughout.

In the case of `COc1ccc(OC)c(NC(=O)C(=O)C(C(C)=O)c2nc3ccc(Cl)cc3[nH]c2=O)c1` (stereo unspecified), the TGI in experiment [2], in experiment [9], in experiment [3], in [4], in experiment [5] and in [6] was more than 50 µM each time. For the same compound, the TGI in [7], in experiment [8] and in experiment [10] was more than 50 µM in each case.

Regarding `CCCCCCCCCCCCCC(=O)OC1CC(=O)OC1CO` (stereo unspecified), the TGI in [2] was more than 100 µM; in experiment [9] it was 92.6 µM; in experiment [3], more than 100 µM; in [4] it was more than 100 µM; in experiment [5], more than 100 µM; in experiment [6], more than 100 µM. Further, the TGI in experiment [7] was 58.8 µM; in experiment [8] it was 51.1 µM; in [10], more than 100 µM.

Turning to `CCCCN(CCCC)C(=O)C(=O)C(C#N)c1ccc(C)cc1` (stereo unspecified), the TGI in [2], in experiment [9], in [3], in experiment [4], in experiment [5] and in experiment [6] was more than 100 µM in each case. Further, the TGI in experiment [7], in [8] and in [10] was more than 100 µM in each case.

Turning to `O=C(CI)NC1Oc2ccccc2-c2oc(=O)c(-c3ccccc3)cc21` (stereo unspecified), the GI50 in experiment [1] is 0.357 µM; in experiment [2] it was 1.79 µM; in experiment [9], 1.86 µM; in experiment [3], 1.68 µM; in experiment [6], 2.07 µM; in experiment [7], 1.32 µM. For the same compound, the GI50 is 1.73 µM in experiment [8] and 8.46 µM in experiment [10]. Moreover, the TGI in experiment [1] was more than 100 µM; in experiment [2], 4.47 µM; in [9], 3.28 µM; in experiment [3] it was 3.36 µM; in experiment [6] it was 4.84 µM; in experiment [7] it was 11.9 µM. Also, the TGI in [8] came to 3.25 µM; in experiment [10], 26.6 µM.

On to `CN1CCN(Cc2ccc(NC(=O)c3cncc(C#Cc4cnc(N)c5ccc(C#N)cc45)c3)cc2C(F)(F)F)CC1`, for which the GI50 in experiment [1] is 0.0464 µM; in [2], 0.141 µM; in experiment [9], 0.0809 µM; in [3], 0.0497 µM; in experiment [4] it was 0.059 µM; in experiment [5], 0.0218 µM. Further, the GI50 in experiment [6] is 0.136 µM; in experiment [8] it was 0.0279 µM; in [10], 0.901 µM. The TGI came to 2.4 µM in experiment [1]; 1.32 µM in experiment [2]; 0.565 µM in experiment [9]; 0.859 µM in experiment [3]; 1.45 µM in experiment [4]; 0.611 µM in experiment [5]. Besides, the TGI was 3.09 µM in experiment [6], 0.422 µM in experiment [8] and 11.1 µM in experiment [10].

In the case of `N=C1CSC2=NC3=C(CCC/C3=C\c3ccccc3)C(c3ccccc3)N12` (stereo unspecified), the TGI stood at 19.5 µM in [2]; 27.4 µM in [9]; 32.9 µM in [3]; 15.2 µM in [4]; 27.9 µM in [5]; 30 µM in experiment [6]. Besides, the TGI in experiment [7] was 18.4 µM; in experiment [8], 23 µM; in [10], 10.6 µM.

`N#Cc1ccc(C#Cc2ccccc2C#CCCCCO)cc1`: the GI50 in experiment [2] was 18.6 µM; in experiment [9], 16.9 µM; in experiment [3], 18.9 µM; in experiment [4] it was 17.4 µM; in [5] it was 17.7 µM; in experiment [6], 17.3 µM. Further, the GI50 in [7] was 21.7 µM; in experiment [8] it was 15 µM; in experiment [10], 18.5 µM. Besides, the TGI is 35.5 µM in experiment [2]; 35.3 µM in experiment [9]; 40.7 µM in experiment [3]; 35 µM in [4]; 31.8 µM in [5]; 31.4 µM in [6]. For the same compound, the figures for the TGI in experiment [7], in [8] and in experiment [10] were 46.1 µM, 28.4 µM and 33.1 µM, respectively.

Turning to `Clc1ccc(C2N3CCCCC3[C@@H]3c4[nH]c5ccccc5c4CCN23)cc1` (stereo partly specified), the TGI in [2], in experiment [9], in experiment [3], in experiment [4], in experiment [5] and in experiment [6] was more than 100 µM throughout. Also, the TGI in [7], in [8] and in experiment [10] was more than 100 µM each time.
